We go through 4 compounds from EPA's ToxRefDB 2.

The structures appear in SMILES notation.

The test system of data set [1] is rat. The settings on record: Multigenerational reproductive toxicity study, sprague dawley, Oral, Feed, dose end: 2 generation.
Data set [2] has as its system rat. The settings on record: Prenatal developmental toxicity study, sprague dawley, Oral, Gavage/Intubation, dose end: 15 GD.
Data set [3] deals with mouse. The note with it: Combined chronic toxicity/carcinogenicity, cd1, Oral, Feed, dose end: 104 week, group: systemic.
In data set [4] the test system is rat. The settings on record: Subchronic oral toxicity in rodents, sprague-dawley, Feed, dose end: 13 week, group: systemic.
The subject of data set [5] is rat. The note with it: Subchronic oral toxicity in rodents, other, Feed, dose end: 13 week.
The subject of data set [6] is rat. The note with it: Combined chronic toxicity/carcinogenicity, other, Oral, Gavage/Intubation, dose end: 104 week, group: systemic.
For data set [7], the system named is mouse. The settings on record: Subchronic oral toxicity in rodents, cd1, Feed, dose end: 13 week, group: systemic.
The test system of data set [8] is rabbit. The settings on record: Prenatal developmental toxicity study, new zealand white, Oral, Gavage/Intubation, dose end: 18 GD.
Data set [9] deals with rat. The note with it: Subchronic oral toxicity in rodents, sprague dawley, Feed, dose end: 14 week, group: systemic.
Data set [10] has as its system rat. The note with it: Combined chronic toxicity/carcinogenicity, sprague dawley, Dermal, Topical, dose end: 24 month, group: systemic.
Data set [11] deals with rat. The settings on record: Subchronic oral toxicity in rodents, fischer, Gavage/Intubation, dose end: 13 week, group: systemic.
Data set [12] deals with mouse. The note with it: Subchronic oral toxicity in rodents, b6c3f1, Gavage/Intubation, dose end: 13 week, group: systemic.
Data set [13] deals with rabbit. The settings on record: Prenatal developmental toxicity study, new zealand white, Oral, Gavage/Intubation, dose end: 19 GD.
For data set [14], the system named is dog. The settings on record: Chronic toxicity; beagle; Oral; Feed; dose end: 52 week; group: systemic; systemic / hematology / erythrocyte (rbc) count differential / erythrocyte (rbc) + systemic / hematology / hemoglobin (hgb) / hemoglobin (….
Data set [15] has as its system mouse. The settings on record: Carcinogenicity; cd1; Oral; [Not Specified]; dose end: 104 week; group: systemic; systemic / in life observation / body weight / body weight + systemic / in life observation / body weight / body weight gain.
For data set [16], the system named is rat. The settings on record: Prenatal developmental toxicity study, sprague dawley, Oral, Gavage/Intubation, dose end: 16 GD.
Data set [17] relates to dog. The settings on record: Chronic toxicity; beagle; Oral; Feed; dose end: 52 week; group: systemic; systemic / hematology / erythrocyte (rbc) count differential / erythrocyte (rbc) + systemic / hematology / hemoglobin (hgb) / hemoglobin (…. This is another data set of the same source.
Data set [18] deals with rat. The note with it: Combined chronic toxicity/carcinogenicity, sprague dawley, Oral, Feed, dose end: 24 month, group: systemic.
The mark [19] stands for this setting: group: offspring, systemic / in life observation / clinical signs / tremors + systemic / in life observation / body weight / litter weight + systemic / in ….
Setting [20] is: group: offspring, systemic / in life observation / clinical signs / tremors + systemic / pathology gross / skin / ulcer.
The mark [21] stands for this setting: group: parental, systemic / pathology gross / skin / ulcer.
The mark [22] stands for this setting: group: developmental, developmental / developmental malformation / bone / absent + developmental / developmental malformation / bone / delayed ossification + ….
Setting [23] is: group: maternal, systemic / in life observation / body weight / body weight gain.
The mark [24] stands for this setting: group: maternal, systemic / in life observation / body weight / body weight gain + systemic / in life observation / clinical signs / blood around eyes and ….
Where [25] appears, read: systemic / pathology gross / skin / lesion(s) (nos) + systemic / pathology microscopic / skin / inflammation.
[26] abbreviates: systemic / organ weight / heart / relative to body weight.
Where [27] appears, read: group: cholinesterase, cholinesterase / cholinesterase / cholinesterase / erythrocyte cholinesterase (che).
[28] abbreviates: group: systemic, systemic / hematology / erythrocyte (rbc) count differential / erythrocyte (rbc) + systemic / hematology / hematocrit (hct) / hematocrit (….
[29] abbreviates: systemic / in life observation / body weight / body weight + systemic / in life observation / water consumption / water consumption + ….
Where [30] appears, read: systemic / pathology microscopic / mammary gland / fibroadenoma.
[31] abbreviates: systemic / organ weight / liver / relative to body weight.
[32] abbreviates: group: developmental, developmental / developmental malformation / bone / short.
The mark [33] stands for this setting: group: developmental, developmental / developmental malformation / bone / short + developmental / developmental malformation / bone / [other].
[34] abbreviates: group: maternal, reproductive / offspring survival early / offspring survival early other / NOS + reproductive / reproductive performance / resorptions / ….
Where [35] appears, read: systemic / in life observation / body weight / body weight + systemic / in life observation / body weight / body weight gain + systemic / ….
Setting [36] is: systemic / pathology microscopic / skin / hyperkeratosis.
The mark [37] stands for this setting: systemic / pathology microscopic / skin / hyperkeratosis + systemic / pathology microscopic / skin / acanthosis + systemic / clinical ….
[38] abbreviates: systemic / clinical chemistry / urea nitrogen / urea nitrogen + systemic / hematology / neutrophils / neutrophils + systemic / in life ….
[39] abbreviates: systemic / in life observation / body weight / body weight + systemic / in life observation / body weight / body weight gain + systemic / in….
Setting [40] is: systemic / hematology / hemoglobin (hgb) / hemoglobin (hgb).
[41] abbreviates: systemic / hematology / hemoglobin (hgb) / hemoglobin (hgb) + systemic / hematology / erythrocyte (rbc) count differential / erythrocyte (….
Where [42] appears, read: group: developmental, developmental / developmental malformation / aorta / double + developmental / developmental malformation / gallbladder / absent + ….
Where [43] appears, read: group: maternal, systemic / in life observation / body weight / body weight gain + reproductive / reproductive performance / aborted / aborted + systemic / ….
The mark [44] stands for this setting: group: developmental, systemic / in life observation / body weight / fetal weight.
Setting [45] is: group: maternal, systemic / in life observation / clinical signs / alopecia + systemic / in life observation / clinical signs / vaginal discharge.
Setting [46] is: group: maternal, systemic / in life observation / clinical signs / alopecia + systemic / in life observation / clinical signs / vaginal discharge + systemic….
Setting [47] is: systemic / in life observation / clinical signs / hyperactivity.
Where [48] appears, read: systemic / in life observation / clinical signs / hyperactivity + systemic / in life observation / body weight / body weight + systemic / in….

In the case of `CC(C)C(Nc1ccc(C(F)(F)F)cc1Cl)C(=O)OC(C#N)c1cccc(Oc2ccccc2)c1` (stereo unspecified) [Fluvalinate], the LEL in the data set with rat [1] (setting [19]) worked out at 9.53 mg/kg/day; in the data set on rat [1] (setting [21]), 9.53 mg/kg/day; with rat [2] (setting [22]), 50 mg/kg/day; in the data set with rat [2] (setting [23]), 10 mg/kg/day; with mouse [3] (setting [25]) it was 10 mg/kg/day; in the data set on rat [4] (setting [26]), 0.3 mg/kg/day. For the same compound, the LEL in the data set on rat [5] (setting [27]) stood at 18.8 mg/kg/day; in the data set with rat [5] (setting [28]), 1.82 mg/kg/day; with rat [6] (setting [30]), 0.25 mg/kg/day; with mouse [7] (setting [31]) it was 1 mg/kg/day; in the data set on rabbit [8] (setting [32]), 125 mg/kg/day; in the data set with rabbit [8] (setting [34]), 125 mg/kg/day. For the same compound, the lowest observed adverse effect level (LOAEL) was 9.53 mg/kg/day in the data set with rat [1] (setting [19]); 9.53 mg/kg/day in the data set with rat [1] (setting [21]); greater than 50 mg/kg/day in the data set on rat [2] (setting [22]); 10 mg/kg/day with rat [2] (setting [23]); 20 mg/kg/day in the data set on mouse [3] (systemic / pathology microscopic / kidney / inflammation); 30 mg/kg/day in the data set on rat [4] (systemic / hematology / erythrocyte (rbc) count differential / erythrocyte (rbc)). Moreover, the LOAEL in the data set with rat [5] (setting [27]) is greater than 116 mg/kg/day; in the data set on rat [5] (setting [28]) it was 1.82 mg/kg/day; in the data set on rat [6] (setting [29]), 2.5 mg/kg/day; with mouse [7] (systemic / pathology gross / skin / lesion(s) (nos) + systemic / in life observation / body weight / body weight) it was 30 mg/kg/day; with rabbit [8] (setting [32]) it was 125 mg/kg/day; in the data set on rabbit [8] (setting [34]), 125 mg/kg/day. In addition, the NEL with rat [1] (setting [20]) was 1.9 mg/kg/day; in the data set with rat [1] (setting [21]) it was 1.9 mg/kg/day; with rat [2] (setting [22]), 10 mg/kg/day; in the data set with rat [2] (setting [24]), 2 mg/kg/day; in the data set on mouse [3] (setting [25]), 2 mg/kg/day; with rat [4] (setting [26]), less than 0.3 mg/kg/day. Also, the NEL with rat [5] (setting [27]) is 7.7 mg/kg/day; in the data set with rat [5] (setting [28]) it was less than 1.82 mg/kg/day; in the data set with rat [6] (setting [30]), less than 0.25 mg/kg/day; in the data set on mouse [7] (setting [31]), less than 1 mg/kg/day; with rabbit [8] (setting [33]), 25 mg/kg/day; in the data set with rabbit [8] (setting [34]), 25 mg/kg/day. Moreover, the NOAEL with rat [1] (setting [20]) is 1.9 mg/kg/day; in the data set with rat [1] (setting [21]) it was 1.9 mg/kg/day; in the data set on rat [2] (setting [22]) it was no less than 50 mg/kg/day; with rat [2] (setting [24]), 2 mg/kg/day; in the data set with mouse [3] (systemic / pathology microscopic / kidney / inflammation + systemic / pathology gross / skin / lesion(s) (nos) + systemic / pathology …) it was 10 mg/kg/day; with rat [4] (systemic / hematology / erythrocyte (rbc) count differential / erythrocyte (rbc) + systemic / clinical chemistry / albumin / albumin + …) it was 3 mg/kg/day. Further, the no-observed-adverse-effect level (NOAEL) is no less than 116 mg/kg/day in the data set with rat [5] (setting [27]); less than 1.82 mg/kg/day in the data set on rat [5] (setting [28]); 1 mg/kg/day in the data set with rat [6] (setting [29]); 3 mg/kg/day in the data set on mouse [7] (systemic / pathology gross / skin / lesion(s) (nos) + systemic / hematology / erythrocyte (rbc) count differential / erythrocyte (rbc) + …); 25 mg/kg/day in the data set with rabbit [8] (setting [33]); 25 mg/kg/day in the data set with rabbit [8] (setting [34]).

For `CCC(C)OC(=O)N1CCCCC1CCO` (stereo unspecified) [Icaridin], in the data set on rat [9] (setting [35]), the LOAEL turned out to be 1030 mg/kg/day, the NEL amounted to 100 mg/kg/day and the NOAEL stood at 301 mg/kg/day. The LEL in the data set with rat [9] (systemic / organ weight / kidney / relative to body weight + systemic / clinical chemistry / alanine aminotransferase (alt/sgpt) / alanine …) came to 149 mg/kg/day. Moreover, in the data set with rat [10] (setting [36]), the LEL was determined as 50 mg/kg/day and the NEL is less than 50 mg/kg/day. Moreover, in the data set with rat [10] (setting [37]), the LOAEL was greater than 200 mg/kg/day and the NOAEL was no less than 200 mg/kg/day.

Take `O=C1OC(=O)c2c(Cl)c(Cl)c(Cl)c(Cl)c21` [Tetrachlorophthalic anhydride]: in the data set on rat [11] (setting [38]), the LOAEL is greater than 1500 mg/kg/day and the NOAEL was no less than 1500 mg/kg/day. Further, in the data set on rat [11] (setting [39]), the LEL worked out at 94 mg/kg/day and the NEL was less than 94 mg/kg/day. In the data set with mouse [12] (setting [40]), this compound registered an LEL of 94 mg/kg/day and an NEL of less than 94 mg/kg/day. Also, in the data set on mouse [12] (setting [41]), the LOAEL was greater than 1500 mg/kg/day and the no observed adverse effect level (NOAEL) was no less than 1500 mg/kg/day.

As to `COc1nc(C)nc(NC(=O)NS(=O)(=O)c2ccccc2Cl)n1` [Chlorsulfuron], the LEL amounted to 400 mg/kg/day with rabbit [13] (setting [42]); 200 mg/kg/day in the data set on rabbit [13] (setting [23]); 254 mg/kg/day in the data set with dog [14]; 750 mg/kg/day with mouse [15]; 1500 mg/kg/day in the data set with rat [16] (setting [44]); 500 mg/kg/day with rat [16] (setting [45]). In addition, the LEL was determined as 254 mg/kg/day in the data set with dog [17] and 30 mg/kg/day in the data set with rat [18] (setting [47]). Also, the LOAEL with rabbit [13] (setting [42]) turned out to be 400 mg/kg/day; in the data set on rabbit [13] (setting [23]), 200 mg/kg/day; with dog [14], 254 mg/kg/day; in the data set with mouse [15], 750 mg/kg/day; in the data set with rat [16] (setting [44]), 1500 mg/kg/day; in the data set with rat [16] (setting [45]), 500 mg/kg/day. For the same compound, the LOAEL in the data set with dog [17] is 254 mg/kg/day; in the data set on rat [18] (setting [47]) it was 30 mg/kg/day. Moreover, the NEL turned out to be 200 mg/kg/day in the data set with rabbit [13] (setting [42]); 75 mg/kg/day in the data set on rabbit [13] (setting [43]); 60.6 mg/kg/day with dog [14]; 108 mg/kg/day in the data set on mouse [15]; 500 mg/kg/day with rat [16] (setting [44]); 165 mg/kg/day with rat [16] (setting [46]). The results for the NEL in the data set on dog [17] and with rat [18] (setting [48]) were 60.6 mg/kg/day and 2 mg/kg/day, respectively. In addition, the no-observed-adverse-effect level (NOAEL) in the data set on rabbit [13] (setting [42]) worked out at 200 mg/kg/day; in the data set with rabbit [13] (setting [43]), 75 mg/kg/day; in the data set on dog [14] it was 60.6 mg/kg/day; in the data set on mouse [15], 108 mg/kg/day; with rat [16] (setting [44]), 500 mg/kg/day; in the data set on rat [16] (setting [46]) it was 165 mg/kg/day. Also, the figures for the no observed adverse effect level (NOAEL) with dog [17] and in the data set on rat [18] (setting [48]) were 60.6 mg/kg/day and 2 mg/kg/day, respectively.
